One substance from patent publication US5561042A, “Diamine platinum naphthalimide complexes as antitumor agents” (Cancer Therapy and Research Center, priority 1995, dated 1996) can be followed below.

In experiment [1] the target is poly (dA.dT) - poly (dA.dT). Briefly: Ethidium bromide displacement, poly(dA.dT)-poly(dA.dT). To be noted: 1 μM DNA, 1.26 μM ethidium bromide, pH 7.0, read-out: FI50, poly (dA.dT) - poly (dA.dT). It counts as binding. As for the experimental part: (§1) A 10× Binding solution was prepared by combining 0.93 ml of an aqueous NaCl solution (5M), 2.0 ml of an aqueous Tris HCl (500 mM) solution, 0.1 ml of an EDTA solution (500 mM) and 46.97 ml of water. The resultant solution was 93 mM in NaCl, 20 mM in Tris HCl, and 1 mM in EDTA. Stock DNA solution were prepared as follows: Poly (dG·dC)-(dG·dC) (ε254=8.4/mM; 27-7910-02), poly(dA·dT)-(dA·dT) (ε262=6.6/mM; 27-7870-02), and lambda DNA (ε260-7.0/mM; 27-4111-01) were purchased from Pharmacia. Solutions were prepared by resuspending either poly (dG·dC)-(dG·dC) or poly(dA·dT)-(dA·dT)in 1 ml of 10× DNA Binding Solution. Lambda DNA is already in solution as purchased.
(§2) Poly (dG·dC)-(dG·dC), poly(dA·dt)-(dA·dt) and lambda DNA concentrations were determined as follows: 980 μl of 10× DNA Binding Solution was pipetted into a 1 ml cuvette. A blank was run on the UV spectrophotometer. 20 μl of the DNA stock of unknown concentration was then added into the cuvette. The sample was then scanned between 210 nm to 500 nm and the absorbance recorded at 254 nm for poly(dG·dC)-(dG·dC), at 262 nm for poly(dA·dT)-(dA·dT) and at 260 nm for lambda DNA. The solution was transferred to a clean tube. This procedure was followed for three different solutions with the absorbance taken as the average of the three. The concentration of poly(dG·dC)-(dG·dC) stock was calculated to be A254 /8.4×1000 (in μM). The concentration of poly(dA·dT)-(dA·dT) stock was calculated to be A262 /6.6×1000 (in μM). The concentration of lambda DNA stock was calculated to be A260 /7.0×1000 (in μM).
(§3) The binding of the bis-naphthalimides to DNA and to synthetic polynucleotide duplexes was determined by an ethidium bromide displacement assay that measures the reduction of fluorescence when ethidium bromide is displaced from DNA (Baguley, 1981). The fluorescence intensity of a 3 ml solution containing 9.3 mM NaCl, 2 mM Tris-HCl (pH 7.0), 100 μM EDTA, 1 μM DNA (in nucleotides) and 1.26 μM ethidium bromide in a quartz cuvette was measured at the excitation (546 nm) and emission (600 nm) wavelengths on a Shimadzu RF5000U spectrofluorometer. Graded concentrations of agent were then added and the fluorescence intensity was measured. The concentration of compound required to reduce the fluorescence intensity by 50% of that of control (FI50) was determined. Therefore, the lower the FI50 the stronger the binding affinity a particular compound has for DNA.
(§4) The ability of bis-naphthalimides of the present invention and the known anti-cancer agents compound 22 and DMP840, (R,R)-2,2'[1,2-ethanediylbis[imino(1-methyl-2,1-ethanediyl)]]-bis[5-nitro- 1H benz[de]isoquinoline-1,3-(2H)dione]dimethanesulfonate, to bind to DNA and to synthetic oligonucleotide duplexes was measured using an ethidium bromide displacement assay. Ethidium bromide, a known DNA intercalator, has no fluorescence in the absence of DNA; however, fluorescence intensity increases when ethidium bromide binds to DNA. The ethidium bromide displacement assay measures the decrease in fluorescence intensity caused by DNA-bound ethidium bromide with DNA interacting agents.

Experiment [2] relates to poly (dG.dC) - poly (dG.dC). Briefly: Ethidium bromide displacement, poly(dG.dC)-poly(dG.dC). It counts as binding. The procedure: as §1, §2, §3, §4

Take “8-(3'-nitro-1',8'-naphthalimide)-3,6-diazaoctylamine dichloroplatinum(II) [Compound 21]”: the IC50 in experiment [1] amounted to 173 nM; in experiment [2] (ethidium bromide displacement, 1 μM DNA, 1.26 μM ethidium bromide, pH 7.0, read-out: FI50, poly (dG.dC) - poly (dG.dC)), 239 nM. Besides, the “Ratio (AT/GC)” value in experiment [2] (FI50 poly(dA.dT)-poly(dA.dT) / FI50 poly(dG.dC)-poly(dG.dC)) came out at 0.72.
